Results published in patent publication US9498480B2 (Bayer Intellectual Property GmbH, priority 2012, dated 2016).

System: recombinant guanylate cyclase reporter cell line
Assay: Effect on a recombinant guanylate cyclase reporter cell line
Type: cell-based
Conditions: representative values, read-out: MEC (minimum effective concentration)
Method: B-2. Effect on a Recombinant Guanylate Cyclase Reporter Cell Line
The cellular activity of the compounds according to the invention is determined using a recombinant guanylate cyclase reporter cell line, as described in F. Wunder et al., Anal. Biochem. 339, 104-112 (2005).

| SMILES | minimal effective concentration |
| --- | --- |
| Cc1n[nH]c2nc(-c3nn(Cc4ncccc4F)c4ncc(F)cc34)nc(N)c12 [Example 1, 6-{5-Fluoro-1-[(3-fluoropyridin-2-yl)methyl]-1H-pyrazolo[3,4-b]pyridin-3-yl}-3-methyl-1H-pyrazolo[3,4-d]pyrimidine-4-amine] | 0.3 µM |
| CCN(CC)c1n[nH]c2nc(-c3nn(Cc4ncccc4F)c4ncc(F)cc34)nc(N)c12 [Example 2, N^3,N^3-Diethyl-6-{5-fluoro-1-[(3-fluoropyridin-2-yl)methyl]-1H-pyrazolo[3,4-b]pyridin-3-yl}-1H-pyrazolo[3,4-d]pyrimidine-3,4-diamine] | 0.1 µM |
| Nc1nc(-c2nn(Cc3ncccc3F)c3ncc(F)cc23)nc2ncccc12 [Example 3, 2-{5-Fluoro-1-[(3-fluoropyridin-2-yl)methyl]-1H-pyrazolo[3,4-b]pyridin-3-yl}pyrido[2,3-d]pyrimidine-4-amine] | 10 µM |
| COc1n[nH]c2nc(-c3nn(Cc4ncccc4F)c4ncc(F)cc34)nc(N)c12 [Example 4, 6-{5-Fluoro-1-[(3-fluoropyridin-2-yl)methyl]-1H-pyrazolo[3,4-b]pyridin-3-yl}-3-methoxy-1H-pyrazolo[3,4-d]pyrimidine-4-amine] | 0.3 µM |
| O=c1[nH]c2nc(-c3nn(Cc4ccccc4F)c4ncc(F)cc34)nc(NCC3CC3)c2n1CC(F)(F)F [Example 5, 6-[(Cyclopropylmethyl)amino]-2-[5-fluoro-1-(2-fluorobenzyl)-1H-pyrazolo[3,4-b]pyridin-3-yl]-7-(2,2,2-trifluoroethyl)-7,9-dihydro-8H-purin-8-one] | 0.3 µM |
| Cc1n[nH]c2nc(-c3nc(Cc4ccccc4F)n4ncccc34)nc(N)c12 [Example 7, 6-[7-(2-Fluorobenzyl)imidazo[1,5-b]pyridazin-5-yl]-3-methyl-1H-pyrazolo[3,4-d]pyrimidine-4-amine] | 0.01 µM |
| Cc1n[nH]c2nc(-c3nn(CCC(F)(F)C(F)(F)F)c4ncc(F)cc34)nc(N)c12 [Example 8, 6-[5-Fluoro-1-(3,3,4,4,4-pentafluorobutyl)-1H-pyrazolo[3,4-b]pyridin-3-yl]-3-methyl-1H-pyrazolo[3,4-d]pyrimidine-4-amine] | 0.1 µM |
| CCN(CC)c1n[nH]c2nc(-c3nn(CCC(F)(F)C(F)(F)F)c4ncc(F)cc34)nc(N)c12 [Example 9] | 0.03 µM |
| Nc1nc(-c2nn(CCC(F)(F)C(F)(F)F)c3ncc(F)cc23)nc2ncccc12 [Example 10, 2-[5-Fluoro-1-(3,3,4,4,4-pentafluorobutyl)-1H-pyrazolo[3,4-b]pyridin-3-yl]pyrido[2,3-d]pyrimidine-4-amine] | 0.3 µM |
